Data published in US9221868B2, “Uridine di- or tri-phosphate derivatives and uses thereof” (BAR-ILAN UNIVERSITY, priority 2010, dated 2015).

Experiments:
[1] = tested on: intraocular pressure in normotense rabbits; assay: Intraocular pressure (IOP) in normotense rabbits; assay type: in vivo, New Zealand white rabbits; settings: for Reduction of IOP: applied to the cornea, 100 μM, 10 μl
Experimental: Twenty-four male New Zealand white rabbits (2.5±0.5 kg) were kept in individual cages with free access to food and water on controlled 12 h/12 h light/dark cycles. All the protocols used adhere to the Association for Research in Vision and Ophthalmology (ARVO) Statement for the Use of Animals in Ophthalmology and Vision Research and also are in accordance with the European Communities Council Directive (86/609/EEC).
Intraocular pressure (IOP) was measured by means of a TonoVET rebound tonometer supplied by Tiolat Oy (Helsinki, Finland). […] For single dose experiments, different analogues were applied unilaterally to the cornea at a concentration of 100 μM and a fixed volume of 10 μl. The contralateral eye received the same volume of saline solution (0.9% NaCl, vehicle). Two IOP measurements were taken before any analogue was instilled. Experiments were performed following a blinded design where no visible indication was given to the experimenter as to the nature of the applied solution. IOP was followed up to 8 h to study the time course of the effect. Some of the analogues were assayed over a range of doses from 1 nM to 100 μM to generate dose-response curves. For these experiments, […] was measured as the maximal response obtained with each dose of the analogue. Dose-response curves were calculated by plotting the IOP value for given concentration versus that concentration (from 1 nM to 100 μM). pD2 values were obtained by fitting the values to a dose-response-curve equation according to ORIGIN8.0 software. With the pD2 value it was possible to calculate the EC50 by multiplying by −1 and then take the antilogarithm. The obtained value is the EC50 expressed in molar concentration. In all experiments, on any given day, only a single dose was tested on a single animal, which was washed out at least 2 days between doses. […]
All data are presented as the means±s.e.m. Significant differences were determined by two-tailed Student's t-tests. […]

P2Y6-R = molecular target: T1, P2Y6-R (Homo sapiens, UniProt Q15077); assay: [Ca2+]i increase in 1321N1 astrocytoma cells expressing P2Y6-R; assay type: cell-based; settings: for EC50: 1321N1 astrocytoma cells, [Ca2+]i, read-out: Potencies (EC50) at the P2Y6-R
T1 construct: expressed in transfected cells; host or cells: 1321N1 astrocytoma cells
Experimental: Green fluorescent protein (GFP) constructs of human P2Y2-R, P2Y4-R and P2Y6-R were expressed in 1321N1 astrocytoma cells, which lack endogenous expression of P2X- and P2Y-receptors. The respective cDNA of the receptor gene was cloned into a pEGFPN1 vector. After transfection using FuGENE 6 Transfection Reagent (Roche Molecular Biochemicals, Mannheim, Germany), the cells were selected with 0.5 mg/ml G418 (geneticine; Merck Chemicals, Darmstadt, Germany) and grown in Dulbecco's modified Eagles' medium (DMEM) supplemented with 10% fetal calf serum, 100 U/ml penicillin and […] at 37° C. and 5% CO2. The expression and cell membrane localization of the respective P2Y receptors was confirmed through the analysis of the GFP fluorescence. The functionality of the expressed GFP-labeled receptor in cells was verified by recording a change of [Ca^2+]i after stimulation with the appropriate receptor agonist.
1321N1 astrocytoma cells transfected with the respective plasmid for P2YR-GFP expression plated on coverslips (22 mm diameter) and grown to approximately 80% density were incubated with 2 μM fura 2/AM and 0.02% pluronic acid in Na-HBS buffer (Hepes buffered saline: 145 mM NaCl, 5.4 mM KCl, 1.8 mM CaCl2, 1 mM MgCl2, 25 mM glucose, 20 mM Hepes/Tris pH 7.4) for 30 min at 37° C. The cells were superfused (1 ml/min, 37° C.) with different concentrations of nucleotide in Na-HBS buffer, and the nucleotide-induced change of [Ca^2+]i was measured by detecting the respective emission intensity of fura 2/AM at 510 nm with after 340 nm and 380 nm excitations (Ubl et al., 1998). The average maximal amplitude of the responses and the respective standard errors were calculated from the ratio of the fura 2/AM fluorescence intensities with excitations at 340 nm and 380 nm (only MT-labeled cells were analysed). Microsoft Excel (Microsoft Corp., Redmond, Wash., USA) and SigmaPlot (SPSS Inc., Chicago, Ill., USA) were used to derive the concentration-response curves and EC50 values from the average response amplitudes obtained in at least three independent experiments (Ecke et al., 2006, 2008). Only cells with a clear MT-signal and with the typical calcium response kinetics upon agonist pulse application were included in the data analysis. The GFP-tagged P2Y receptors are suitable for pharmacological and physiological studies, as previously reported (Tulapurkar et al., 2004, 2006; Zylberg et al., 2007).
1321N1 cell lines stably expressing the human P2Y6 receptors were grown as previously described in DMEM (5% FBS, 100 IU/ml penicillin, 100 μg/ml streptomycin, 1× Glutamax, 10 mM Hepes and 0.5 mg/ml G-418) at 37° C. in a humidified atmosphere containing 5% CO2 and 95% air (Gendron et al., 2003).
1321N1 cells (10×10^6 cells grown in 10 cm^2 dishes) were harvested by a brief trypsin/EDTA treatment, suspended in complete culture medium, and washed by centrifugation for 3 min at 100×g before being incubated with 1 μM Fluo 4/AM in 4.5 ml HBSS with Ca^2+ and Mg^2+ (Wisent, St. Bruno, QC) for 25 min at 37° C. Cells were washed by centrifugation (100×g, 3 min), suspended in HBSS containing Ca^2+ and Mg^2+, and incubated for 25 min at 37° C. Cells were washed and suspended in 16 ml of FIBSS containing Ca^+ and Mg^2+. Cell suspension (2 ml) was gently stirred in a quartz cuvette while [Ca^2+]i and monitored on a RF-5301 PC Shimadzu spectrofluorometer with Panormama fluorescence 1.1 software (Man-Tech, Guelph, ON). Excitation wavelengths of 488 nm and emission wavelength of 520 nm were used to measure changes in intracellular Fluo 4 fluorescence intensity (F). At the end of each recording, maximal fluorescence (Fmax) and minimal fluorescence (Fmin) were determined by adding successively 0.1% Triton X-100 and 50 mM EDTA to cell suspensions. The following equation from Grynkiewicz et al. (1985) was used to relate the fluorescence intensity to Ca^2+ levels: [Ca^2+]=Kd×(F−Fmin)/(Fmax−F), wherein Kd is the Ca^+ dissociation constant of the indicator (345 nM). […]

T1 sequence (Q15077 whole entry): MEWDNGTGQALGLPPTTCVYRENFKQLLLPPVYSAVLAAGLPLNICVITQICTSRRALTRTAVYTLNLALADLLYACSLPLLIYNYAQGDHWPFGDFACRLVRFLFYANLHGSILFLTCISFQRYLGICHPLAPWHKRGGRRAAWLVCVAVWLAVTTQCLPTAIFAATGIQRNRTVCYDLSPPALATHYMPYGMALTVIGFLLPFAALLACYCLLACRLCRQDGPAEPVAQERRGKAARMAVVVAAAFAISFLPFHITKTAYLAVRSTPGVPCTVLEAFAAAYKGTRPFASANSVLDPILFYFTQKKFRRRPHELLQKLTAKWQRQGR

EC50 (P2Y6-R) [nM]	Potency of A-isomer relative to the corresponding B-isomer at P2Y6-R (P2Y6-R; ratio of EC50 values)	SMILES	Duration of action (IOP reduction) [1]	Reduction of IOP [1] [%]
8	more than 500 fold	[BH3-][P+](O)(OCC1OC(n2cc(OC)c(=O)[nH]c2=O)C(O)C1O)OP(=O)(O)O (single isomer, unassigned) [Analogue 13A, 5-methoxyuridine-5′-O-(α-boranodiphosphate)]	about 4 h	45
		COc1cn([C@@H]2O[C@H](COP(=O)(O)OP(=O)(O)O)[C@@H](O)[C@H]2O)c(=O)[nH]c1=O [Analogue 12, 5-methoxyuridine diphosphate]		31
150		O=c1ccn([C@@H]2O[C@H](COP(=O)(O)OP(=O)(O)O)[C@@H](O)[C@H]2O)c(=O)[nH]1 [UDP, reference compound]		
